# Source: patent US20220281848A1, “PYRAZOLE-SUBSTITUTED PYRROLIDINONES AS HERBICIDES” (FMC Corporation, priority 2019, published 2022)
# System: plants
# Experiment: Test D pre-emergence, other plants of Tables D1 and D3
# Type: in vivo
# Conditions: preemergent, 20 DAA
# Procedure: A formulation containing 50 g/L of the test chemical was prepared by dissolving the active ingredient in a mixture of organic solvents and emulsifier, details of which are provided in the table. This formulation was then mixed with a small, variable amount of acetone to aid dissolution, before addition of a 0.2% v/v aqueous solution of an adjuvant, as the aqueous diluent, to form an aqueous spray solution which contains a predetermined concentration of the active ingredient.
# This aqueous spray solution was then sprayed onto plants including maize and wheat that had been seed treated with a herbicide safener, after one day's cultivation (for pre-emergence) or after about 12 days' cultivation (for post-emergence). The plants were grown from seeds sown in standard soil, placed in a glasshouse under controlled conditions (at 24/18° C. or 20/16° C., day/night; 16 h light; 65% humidity). After spray application the plants were then grown in a glasshouse under the same conditions and watered twice daily. After 15 d for post-emergence and 20 DAA for pre-emergence the test was evaluated (100=total damage to plant; 0=no damage to plant).
compound,measurement,setting,value
CN1CC(c2cc(C(F)(F)F)n(C)n2)C(C(=O)Nc2ccc(F)cc2F)C1=O (racemic) [Compound 6],"damage to plant (100=total damage to plant; 0=no damage to plant), ABUTH",rate 15,0
same,"damage to plant (100=total damage to plant; 0=no damage to plant), ABUTH",rate 30,0
same,"damage to plant (100=total damage to plant; 0=no damage to plant), ABUTH",rate 60,0
same,"damage to plant (100=total damage to plant; 0=no damage to plant), ABUTH",rate 130,0
same,"damage to plant (100=total damage to plant; 0=no damage to plant), ABUTH",rate 250,0
same,"damage to plant (100=total damage to plant; 0=no damage to plant), ABUTH",rate 500,0
same,"damage to plant (100=total damage to plant; 0=no damage to plant), AMARE",rate 15,0
same,"damage to plant (100=total damage to plant; 0=no damage to plant), AMARE",rate 30,0
same,"damage to plant (100=total damage to plant; 0=no damage to plant), AMARE",rate 60,0
same,"damage to plant (100=total damage to plant; 0=no damage to plant), AMARE",rate 130,0
same,"damage to plant (100=total damage to plant; 0=no damage to plant), AMARE",rate 250,0
same,"damage to plant (100=total damage to plant; 0=no damage to plant), AMARE",rate 500,0
same,"damage to plant (100=total damage to plant; 0=no damage to plant), BIDPI",rate 15,0
same,"damage to plant (100=total damage to plant; 0=no damage to plant), BIDPI",rate 30,0
same,"damage to plant (100=total damage to plant; 0=no damage to plant), BIDPI",rate 60,0
same,"damage to plant (100=total damage to plant; 0=no damage to plant), BIDPI",rate 130,0
same,"damage to plant (100=total damage to plant; 0=no damage to plant), BIDPI",rate 250,0
same,"damage to plant (100=total damage to plant; 0=no damage to plant), BIDPI",rate 500,0
same,"damage to plant (100=total damage to plant; 0=no damage to plant), BRAPL",rate 15,0
same,"damage to plant (100=total damage to plant; 0=no damage to plant), BRAPL",rate 30,50
same,"damage to plant (100=total damage to plant; 0=no damage to plant), BRAPL",rate 60,60
same,"damage to plant (100=total damage to plant; 0=no damage to plant), BRAPL",rate 130,80
same,"damage to plant (100=total damage to plant; 0=no damage to plant), BRAPL",rate 250,80
same,"damage to plant (100=total damage to plant; 0=no damage to plant), BRAPL",rate 500,90
same,"damage to plant (100=total damage to plant; 0=no damage to plant), CYPES",rate 15,0
same,"damage to plant (100=total damage to plant; 0=no damage to plant), CYPES",rate 30,0
same,"damage to plant (100=total damage to plant; 0=no damage to plant), CYPES",rate 60,0
same,"damage to plant (100=total damage to plant; 0=no damage to plant), CYPES",rate 130,0
same,"damage to plant (100=total damage to plant; 0=no damage to plant), CYPES",rate 250,10
same,"damage to plant (100=total damage to plant; 0=no damage to plant), CYPES",rate 500,80
same,"damage to plant (100=total damage to plant; 0=no damage to plant), DIGSA",rate 15,0
same,"damage to plant (100=total damage to plant; 0=no damage to plant), DIGSA",rate 30,30
same,"damage to plant (100=total damage to plant; 0=no damage to plant), DIGSA",rate 60,90
same,"damage to plant (100=total damage to plant; 0=no damage to plant), DIGSA",rate 130,90
same,"damage to plant (100=total damage to plant; 0=no damage to plant), DIGSA",rate 250,90
same,"damage to plant (100=total damage to plant; 0=no damage to plant), DIGSA",rate 500,100
same,"damage to plant (100=total damage to plant; 0=no damage to plant), ECHCG",rate 15,0
same,"damage to plant (100=total damage to plant; 0=no damage to plant), ECHCG",rate 30,20
same,"damage to plant (100=total damage to plant; 0=no damage to plant), ECHCG",rate 60,20
same,"damage to plant (100=total damage to plant; 0=no damage to plant), ECHCG",rate 130,80
same,"damage to plant (100=total damage to plant; 0=no damage to plant), ECHCG",rate 250,90
same,"damage to plant (100=total damage to plant; 0=no damage to plant), ECHCG",rate 500,100
same,"damage to plant (100=total damage to plant; 0=no damage to plant), ELEIN",rate 15,0
same,"damage to plant (100=total damage to plant; 0=no damage to plant), ELEIN",rate 30,0
same,"damage to plant (100=total damage to plant; 0=no damage to plant), ELEIN",rate 60,0
same,"damage to plant (100=total damage to plant; 0=no damage to plant), ELEIN",rate 130,0
same,"damage to plant (100=total damage to plant; 0=no damage to plant), ELEIN",rate 250,0
same,"damage to plant (100=total damage to plant; 0=no damage to plant), ELEIN",rate 500,0
same,"damage to plant (100=total damage to plant; 0=no damage to plant), EPHHL",rate 15,0
same,"damage to plant (100=total damage to plant; 0=no damage to plant), EPHHL",rate 30,0
same,"damage to plant (100=total damage to plant; 0=no damage to plant), EPHHL",rate 60,0
same,"damage to plant (100=total damage to plant; 0=no damage to plant), EPHHL",rate 130,0
same,"damage to plant (100=total damage to plant; 0=no damage to plant), EPHHL",rate 250,0
same,"damage to plant (100=total damage to plant; 0=no damage to plant), EPHHL",rate 500,0
same,"damage to plant (100=total damage to plant; 0=no damage to plant), GLXMA",rate 15,0
same,"damage to plant (100=total damage to plant; 0=no damage to plant), GLXMA",rate 30,0
same,"damage to plant (100=total damage to plant; 0=no damage to plant), GLXMA",rate 60,0
same,"damage to plant (100=total damage to plant; 0=no damage to plant), GLXMA",rate 130,0
same,"damage to plant (100=total damage to plant; 0=no damage to plant), GLXMA",rate 250,0
same,"damage to plant (100=total damage to plant; 0=no damage to plant), GLXMA",rate 500,0
same,"damage to plant (100=total damage to plant; 0=no damage to plant), IPOHE",rate 15,0
same,"damage to plant (100=total damage to plant; 0=no damage to plant), IPOHE",rate 30,0
same,"damage to plant (100=total damage to plant; 0=no damage to plant), IPOHE",rate 60,0
same,"damage to plant (100=total damage to plant; 0=no damage to plant), IPOHE",rate 130,0
same,"damage to plant (100=total damage to plant; 0=no damage to plant), IPOHE",rate 250,0
same,"damage to plant (100=total damage to plant; 0=no damage to plant), IPOHE",rate 500,0
same,"damage to plant (100=total damage to plant; 0=no damage to plant), ORYSA",rate 15,0
same,"damage to plant (100=total damage to plant; 0=no damage to plant), ORYSA",rate 30,0
same,"damage to plant (100=total damage to plant; 0=no damage to plant), ORYSA",rate 60,0
same,"damage to plant (100=total damage to plant; 0=no damage to plant), ORYSA",rate 130,0
same,"damage to plant (100=total damage to plant; 0=no damage to plant), ORYSA",rate 250,0
same,"damage to plant (100=total damage to plant; 0=no damage to plant), ORYSA",rate 500,0
same,"damage to plant (100=total damage to plant; 0=no damage to plant), PANMI",rate 15,0
same,"damage to plant (100=total damage to plant; 0=no damage to plant), PANMI",rate 30,0
same,"damage to plant (100=total damage to plant; 0=no damage to plant), PANMI",rate 60,0
same,"damage to plant (100=total damage to plant; 0=no damage to plant), PANMI",rate 130,0
same,"damage to plant (100=total damage to plant; 0=no damage to plant), PANMI",rate 250,0
same,"damage to plant (100=total damage to plant; 0=no damage to plant), PANMI",rate 500,0
same,"damage to plant (100=total damage to plant; 0=no damage to plant), SETFA",rate 15,0
same,"damage to plant (100=total damage to plant; 0=no damage to plant), SETFA",rate 30,0
same,"damage to plant (100=total damage to plant; 0=no damage to plant), SETFA",rate 60,10
same,"damage to plant (100=total damage to plant; 0=no damage to plant), SETFA",rate 130,80
same,"damage to plant (100=total damage to plant; 0=no damage to plant), SETFA",rate 250,90
same,"damage to plant (100=total damage to plant; 0=no damage to plant), SETFA",rate 500,90
same,"damage to plant (100=total damage to plant; 0=no damage to plant), SORVU",rate 15,0
same,"damage to plant (100=total damage to plant; 0=no damage to plant), SORVU",rate 30,0
same,"damage to plant (100=total damage to plant; 0=no damage to plant), SORVU",rate 60,0
same,"damage to plant (100=total damage to plant; 0=no damage to plant), SORVU",rate 130,0
same,"damage to plant (100=total damage to plant; 0=no damage to plant), SORVU",rate 250,0
same,"damage to plant (100=total damage to plant; 0=no damage to plant), SORVU",rate 500,0
